{
  "source": "patent US7470703B1",
  "about": "(priority 2004, dated 2008)",
  "key": {"[1]": {"target": "T1, human α2B-AR (Homo sapiens, UniProt P18089)", "T1 construct": "expressed in transfected cells", "T1 sequence (P18089 1-450)": "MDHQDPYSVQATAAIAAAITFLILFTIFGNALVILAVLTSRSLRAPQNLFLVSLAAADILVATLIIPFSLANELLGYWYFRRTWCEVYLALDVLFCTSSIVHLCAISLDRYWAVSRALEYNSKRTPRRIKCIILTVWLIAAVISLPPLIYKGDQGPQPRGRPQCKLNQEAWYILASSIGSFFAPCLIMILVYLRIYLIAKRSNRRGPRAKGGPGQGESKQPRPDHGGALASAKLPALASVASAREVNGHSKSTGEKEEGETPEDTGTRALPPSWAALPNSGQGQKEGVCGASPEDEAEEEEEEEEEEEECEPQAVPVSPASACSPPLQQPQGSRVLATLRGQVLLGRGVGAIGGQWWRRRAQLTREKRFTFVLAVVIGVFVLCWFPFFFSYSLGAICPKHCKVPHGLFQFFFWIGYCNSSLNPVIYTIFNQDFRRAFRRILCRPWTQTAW", "test": "Radioligand binding ([3H]rauwolscine) in CHO cells expressing human α2B-AR", "method": "(§1) Radioligand binding studies were conducted in CHO cells expressing homogeneous populations of α2A-, α2B- and α2C-ARs. Similar studies were performed in HEK293 cells expressing homogeneous populations of α1A-, α1B- and α1D-ARs. Briefly, CHO cells were harvested using Ham's F-12 media following trypsinization while HEK293 cells were detached by simple scraping. The cell suspension was centrifuged and the pellet re-suspended in Tris-EDTA buffer, pH 7.4. […] The assays were conducted in a final volume of 2 ml. Non-specific binding was determined in the presence of 10 μM phentolamine. The percentage of specific binding was determined by dividing the difference between the total bound (dpm) and nonspecific bound (dpm) by the total bound (dpm). […] Inhibition of specific binding by the competitors was determined using varying concentrations of the analogs. Incubations were terminated at 60 minutes by rapid filtration over Whatman GF/C glass fiber filters (Maidstone, UK) using a cell harvester (Brandel Inc., Gaithersburg, Md.). The filter discs were washed three times with Tris-EDTA buffer, pH 7.4, at 4° C. The radioactivity was quantified by using a Packard TRI-CARB 2900 TR Liquid Scintillation Analyzer (Packard Instrument Company, CT, USA) and data analyzed using GraphPad Prism (GraphPad Software, San Diego, Calif., USA).\n(§2) Scatchard analyses were carried out using varying concentrations of selected radioligands to determine their affinities (KD) and maximal binding characteristics (Bmax). […] The total and nonspecific binding for each concentration was determined in triplicate. The specific binding, at each concentration of the radioligand, was established and plotted as bound ligand versus bound/free ligand and the corresponding KD and Bmax values calculated on each human α-AR subtype. Data are expressed as the mean±S.E.M. of n=6-9 experiments.\n(§3) Individual pKi values are used to determine whether there are significant differences among means of the analogs on the three α2-AR subtypes. […] The final data are presented as mean±SEM of n=4 or more experiments.\n(§4) Ki and IC50 values were calculated as described above."}, "[2]": {"target": "T2, human α2A-AR (Homo sapiens, UniProt P08913)", "T2 sequence (P08913 1-465)": "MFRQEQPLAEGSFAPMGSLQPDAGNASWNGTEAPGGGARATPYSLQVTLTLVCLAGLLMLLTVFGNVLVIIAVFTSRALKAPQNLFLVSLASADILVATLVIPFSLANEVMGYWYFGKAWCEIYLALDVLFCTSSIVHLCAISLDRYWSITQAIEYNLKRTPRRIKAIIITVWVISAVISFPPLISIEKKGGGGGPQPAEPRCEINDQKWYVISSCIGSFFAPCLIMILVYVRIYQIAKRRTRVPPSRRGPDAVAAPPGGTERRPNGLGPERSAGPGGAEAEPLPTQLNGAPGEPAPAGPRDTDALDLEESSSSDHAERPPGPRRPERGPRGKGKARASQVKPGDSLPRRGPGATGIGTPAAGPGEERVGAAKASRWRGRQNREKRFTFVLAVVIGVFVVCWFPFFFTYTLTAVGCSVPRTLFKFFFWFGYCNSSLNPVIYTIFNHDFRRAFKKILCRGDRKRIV", "test": "Radioligand binding ([3H]rauwolscine) in CHO cells expressing human α2A-AR", "design": "expressed in transfected cells", "method": "as §1, §2, §3, §4"}, "[3]": {"target": "T3, human α2C-AR (Homo sapiens, UniProt P18825)", "T3 sequence (P18825 1-462)": "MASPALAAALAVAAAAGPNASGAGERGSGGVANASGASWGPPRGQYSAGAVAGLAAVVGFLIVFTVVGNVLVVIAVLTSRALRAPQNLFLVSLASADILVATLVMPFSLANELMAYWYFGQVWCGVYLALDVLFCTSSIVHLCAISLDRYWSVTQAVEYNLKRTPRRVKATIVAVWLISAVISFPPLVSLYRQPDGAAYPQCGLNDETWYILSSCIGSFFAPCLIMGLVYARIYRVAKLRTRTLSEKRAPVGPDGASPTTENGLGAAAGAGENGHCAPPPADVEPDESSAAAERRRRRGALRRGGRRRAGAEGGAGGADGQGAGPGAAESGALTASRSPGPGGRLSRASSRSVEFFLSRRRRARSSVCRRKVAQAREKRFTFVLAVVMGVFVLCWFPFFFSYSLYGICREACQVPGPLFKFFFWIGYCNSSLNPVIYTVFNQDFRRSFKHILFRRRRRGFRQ", "test": "Radioligand binding ([3H]rauwolscine) in CHO cells expressing human α2C-AR", "design": "expressed in transfected cells", "details": "for selectivity in binding to the α2C- versus the α2A-AR / selectivity in binding to the α2C- versus the α2B-AR: from binding affinities; for binding affinity for the α2C-AR greater than on the α1-AR subtypes: comparing Tables 1 and 3", "method": "as §1, §2, §3, §4"}, "[4]": {"test_system": "mouse cremaster muscle", "test": "In vivo mouse cremaster muscle vessel diameter", "details": "intravenous 2 mg/kg, 37° C., n=6", "from_the_text": "It is expected that this model also adequately represent the vasodilation in humans."}, "[5]": {"test_system": "mouse cremaster muscle", "test": "Ex vivo mouse cremaster muscle vasoconstriction model", "details": "for EC50: Mus musculus, read-out: EC50 (vasoconstriction concentration-response)"}, "[6]": {"target": "T2, human α2A-AR", "test": "cell-based", "method": "(§5) The reporter gene assays were conducted in CHO cells expressing the human α2A- and α2C-AR subtype. The cells were grown to confluence, upon which they were isolated and electroporated in the presence of the plasmid. […] Cells were transiently transfected with the 6 CRE-LUC plasmid (5 μg/100 μl of cell suspension) using electroporation at 150 V, 70 ms, single pulse. Transfected cells were plated into a 96-well microplate at a density of approximately 50,000 cells per well and allowed to grow for 20 hours.\n(§6) The assays with both α2A- and α2C-ARs were conducted using the non-subtype selective α2-AR agonist, medetomidine, to block the cAMP changes induced by the adenyl cyclase activator, forskolin. […] Basal values (solvent control) were subtracted from the forskolin values and the resulting forskolin response was used as 100%. Similarly, basal values were subtracted from all other values obtained with ligands, and the data expressed as a percentage luciferase response relative to that of forskolin alone.\n(§7) The agonist ligand, medetomidine, was added directly to the medium 20 minutes prior to the addition of forskolin and then allowed to incubate for 4 hours. […] These compounds were added 20 minutes prior to the addition of medetomidine."}, "[7]": {"target": "T3, human α2C-AR", "test": "cell-based", "method": "as §5, §6, §7"}, "[8]": {"target": "T3, human α2C-AR", "design": "expressed in transfected cells", "details": "literature; cited from earlier work"}, "[9]": {"details": "CHO, read-out: inhibition of forskolin-induced cAMP response (luciferase)"}, "[10]": {"details": "CHO cells, [3H]rauwolscine competition"}},
  "note": "Like-named read-outs stand apart in the source and are kept apart here. Marks after values point to notes of the source that are not given here.",
  "data": [
    {"molecule": "O=C(O)[C@@H]1[C@H]2C[C@H]3c4[nH]c5ccccc5c4CCN3C[C@@H]2CC[C@@H]1O", "note": "[Compound 2, Yohimbinic acid]", "values": [
      {"measurement": "binding at the α2B-AR versus the α2A-AR", "setting": "[1]", "value": 46, "unit": "fold"},
      {"measurement": "decrease in binding potency at the α2B-AR as compared to yohimbine", "setting": "[1]", "value": 2, "unit": "fold"},
      {"measurement": "Ki", "setting": "[1]; CHO cells", "value": 13.4, "unit": "nM"},
      {"measurement": "decrease in binding potency at the α2A-AR as compared to yohimbine", "setting": "[2]", "value": 345, "unit": "fold"},
      {"measurement": "Ki", "setting": "[2]; CHO cells", "value": 616, "unit": "nM"},
      {"measurement": "decrease in binding potency at the α2C-AR as compared to yohimbine", "setting": "[3]", "value": 20, "unit": "fold"},
      {"measurement": "Ki", "setting": "[3]; CHO cells", "value": 19.4, "unit": "nM"},
      {"measurement": "selectivity in binding to the α2C- versus the α2A-AR", "setting": "[3]", "value": "around 32 fold"},
      {"measurement": "selectivity in binding to the α2C- versus the α2B-AR", "setting": "[3]", "value": "equipotent"}
    ]},
    {"molecule": "COC(=O)[C@@H]1[C@H]2C[C@H]3c4[nH]c5ccccc5c4CCN3C[C@@H]2CC[C@@H]1O", "note": "[Compound 1, Yohimbine]", "values": [
      {"measurement": "increase in vessel diameter", "setting": "[4]", "value": "22.14±1.08", "unit": "%"},
      {"measurement": "reversal of medetomidine induced vasoconstriction", "setting": "[5]; 30, 100, and 300 nM", "value": "reversed"},
      {"measurement": "binding affinity for the α2C-AR greater than on the α1-AR subtypes", "setting": "[3]", "value": "at least 224 fold"}
    ]},
    {"molecule": "[^3H]rauwolscine [[^3H]rauwolsine]", "values": [
      {"measurement": "Bmax α2A", "setting": "[2]; saturation binding, CHO cells", "value": "8.20±0.71", "unit": "pmoles/mg protein"},
      {"measurement": "Bmax α2C", "setting": "[3]; saturation binding, CHO cells", "value": "1.20±0.13", "unit": "pmoles/mg protein"}
    ]},
    {"molecule": "yohimbine benzyl carbamate propyl amine [Compound 7]", "values": [
      {"measurement": "mean percent inhibition (of the medetomidine response)", "setting": "[6]; α2A-AR, test compound 0.1 μM, medetomidine 0.01 μM, forskolin 5 μM", "value": 54, "unit": "%"},
      {"measurement": "binding affinity for the α2C-AR greater than on the α1-AR subtypes", "setting": "[3]", "value": "≥ 562", "unit": "fold"}
    ]},
    {"molecule": "Cc1cccc(C(C)c2cnc[nH]2)c1C", "note": "(stereo not drawn) [medetomidine]", "values": [
      {"measurement": "inhibition at 1 µM", "setting": "[7]; [9]", "value": 70, "unit": "%"},
      {"measurement": "increase in cAMP levels, alone (in the absence of forskolin)", "setting": "[7]; α2C-AR, 1 μM", "value": "did not show an increase in cAMP levels"},
      {"measurement": "inhibition at 0.01 µM", "setting": "[6]; [9]", "value": 56, "unit": "%"},
      {"measurement": "increase in cAMP levels, alone (in the absence of forskolin)", "setting": "[6]; α2A-AR, 10 μM", "value": 17, "unit": "%"},
      {"measurement": "shift of the curve (to the left) at the lower temperature", "setting": "[5]; 25° C. vs 37° C.", "value": 10, "unit": "fold"},
      {"measurement": "EC50", "setting": "[5]; 25° C.", "value": 2.15, "unit": "nM"},
      {"measurement": "EC50", "setting": "[5]; 37° C.", "value": 20.4, "unit": "nM"}
    ]},
    {"molecule": "O=C(NCCCNC(=O)C1C(O)CCC2CN3CCc4c([nH]c5ccccc45)C3CC21)C1C(O)CCC2CN3CCc4c([nH]c5ccccc45)C3CC21", "note": "(stereo not drawn) [Compound 3]", "values": [
      {"measurement": "selectivity in binding to the α2C- versus α2A-AR (Lalchandani et al. 2002)", "setting": "[8]", "value": 32, "unit": "fold"},
      {"measurement": "selectivity in binding to the α2C- versus α2B-AR (Lalchandani et al. 2002)", "setting": "[8]", "value": 355, "unit": "fold"},
      {"measurement": "Ki", "setting": "[1]; CHO cells", "value": 602, "unit": "nM"},
      {"measurement": "α2B pKi ± SEM", "setting": "[1]; [10]", "value": "6.22 ± 0.03"},
      {"measurement": "Ki", "setting": "[2]; CHO cells", "value": 158, "unit": "nM"},
      {"measurement": "α2A pKi ± SEM", "setting": "[2]; [10]", "value": "6.80 ± 0.02^a"},
      {"measurement": "Ki", "setting": "[3]; CHO cells", "value": 8.91, "unit": "nM"},
      {"measurement": "α2C pKi ± SEM", "setting": "[3]; [10]", "value": "8.05 ± 0.04^b"},
      {"measurement": "selectivity in binding to the α2C- versus the α2A-AR", "setting": "[3]", "value": 18, "unit": "fold"},
      {"measurement": "selectivity in binding to the α2C- versus the α2B-AR", "setting": "[3]", "value": 68, "unit": "fold"}
    ]}
  ]
}
